ChEMBL document CHEMBL5523723, “G Protein-Coupled Estrogen Receptor-Mediated Anti-Inflammatory and Mucosal Healing Activity of a Trimethylpyridinol Analogue in Inflammatory Bowel Disease” (J Med Chem, 2024)

What was measured:
U-937 [1] = experiment: Induction of apoptosis in human U-937 cells assessed as viable cells at 5 uM incubated for 24 hrs by Annexin V FITC/PI staining based flow cytometry analysis ( Rvb = 95.2 +/- 0.4%); type: functional; conditions: read-out: Activity
[2] = target: G-protein coupled estrogen receptor 1 (Homo sapiens, UniProt Q99527); experiment: Inhibition of GPER1 (unknown origin)
Chain of G-protein coupled estrogen receptor 1 (Q99527 whole entry): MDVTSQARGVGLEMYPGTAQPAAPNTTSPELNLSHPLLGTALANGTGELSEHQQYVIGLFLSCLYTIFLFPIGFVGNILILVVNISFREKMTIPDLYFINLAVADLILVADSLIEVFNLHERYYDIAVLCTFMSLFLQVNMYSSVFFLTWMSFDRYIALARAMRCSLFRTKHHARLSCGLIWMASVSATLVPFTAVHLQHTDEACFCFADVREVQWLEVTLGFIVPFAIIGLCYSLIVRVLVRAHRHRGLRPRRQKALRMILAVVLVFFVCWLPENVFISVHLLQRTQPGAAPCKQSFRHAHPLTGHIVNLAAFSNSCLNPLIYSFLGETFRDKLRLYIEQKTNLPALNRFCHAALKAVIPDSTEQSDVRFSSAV

HT-29 [3] = experiment: Induction of apoptosis in human HT-29 cells assessed as viable cells at 5 uM incubated for 24 hrs by Annexin V FITC/PI staining based flow cytometry analysis ( Rvb = 99 +/- 0.1%); type: functional; conditions: read-out: Activity
CYP2C19 = CYP2C19 (Homo sapiens, UniProt P33261); experiment: Inhibition of CYP2C19 in human liver microsomes assessed as remaining activity at 10 uM using 5-mephenytoin as substrate preincubated for 5 mins followed by NADPH generating system addition for 15 mins by LC-MS/MS method relative to control; type: ADME, Microsome; conditions: probe 5-mephenytoin, time 20 min, read-out: Activity
Chain of CYP2C19 (P33261 whole entry): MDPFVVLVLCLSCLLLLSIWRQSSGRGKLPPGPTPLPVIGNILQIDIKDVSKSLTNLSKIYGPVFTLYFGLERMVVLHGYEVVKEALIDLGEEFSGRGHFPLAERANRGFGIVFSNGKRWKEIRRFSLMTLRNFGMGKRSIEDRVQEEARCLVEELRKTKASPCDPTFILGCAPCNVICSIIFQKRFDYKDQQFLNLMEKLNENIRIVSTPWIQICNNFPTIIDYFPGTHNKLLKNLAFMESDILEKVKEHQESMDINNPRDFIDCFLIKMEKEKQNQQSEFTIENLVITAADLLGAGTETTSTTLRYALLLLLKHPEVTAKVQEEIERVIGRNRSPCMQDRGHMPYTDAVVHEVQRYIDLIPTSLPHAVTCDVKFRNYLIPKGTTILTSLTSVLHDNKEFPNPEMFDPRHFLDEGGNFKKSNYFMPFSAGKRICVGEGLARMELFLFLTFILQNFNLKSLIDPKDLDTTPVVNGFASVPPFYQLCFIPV

[4] = Oral bioavailability in Sprague-Dawley rat at 1 mg/kg by LC-MS analysis; type: ADME, organism-based; conditions: in vivo
[5] = AUC(0 to t) in Sprague-Dawley rat at 5 mg/kg, po by LC-MS analysis; type: ADME, organism-based; conditions: in vivo
CYP2D6 = CYP2D6 (Homo sapiens, UniProt P10635); experiment: Inhibition of CYP2D6 in human liver microsomes assessed as remaining activity at 10 uM using dextromethorphan as substrate preincubated for 5 mins followed by NADPH generating system addition for 15 mins by LC-MS/MS method relative to control; type: ADME, Microsome; conditions: probe dextromethorphan, time 20 min, read-out: Activity
Chain of CYP2D6 (P10635 whole entry): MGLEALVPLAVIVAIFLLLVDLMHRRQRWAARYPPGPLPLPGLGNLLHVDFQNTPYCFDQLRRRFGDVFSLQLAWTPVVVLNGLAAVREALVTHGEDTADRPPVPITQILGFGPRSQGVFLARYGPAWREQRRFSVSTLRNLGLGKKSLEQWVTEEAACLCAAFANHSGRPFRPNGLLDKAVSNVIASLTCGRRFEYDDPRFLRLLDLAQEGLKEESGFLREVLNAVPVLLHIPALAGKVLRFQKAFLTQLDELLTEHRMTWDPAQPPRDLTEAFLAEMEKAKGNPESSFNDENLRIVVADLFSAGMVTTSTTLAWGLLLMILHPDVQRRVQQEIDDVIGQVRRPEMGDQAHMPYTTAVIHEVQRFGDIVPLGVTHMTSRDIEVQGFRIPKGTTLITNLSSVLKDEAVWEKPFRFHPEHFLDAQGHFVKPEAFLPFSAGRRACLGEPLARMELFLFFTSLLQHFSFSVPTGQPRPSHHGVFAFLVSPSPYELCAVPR

U-937 [6] = experiment: Induction of apoptosis in human U-937 cells assessed as viable cells at 10 uM incubated for 24 hrs by Annexin V FITC/PI staining based flow cytometry analysis ( Rvb = 95.2 +/- 0.4%); type: functional; conditions: read-out: Activity
[7] = Half-life in Sprague-Dawley rat at 1 mg/kg, iv by LC-MS analysis; type: ADME, organism-based; conditions: in vivo
[8] = Mean residence time in Sprague-Dawley rat at 1 mg/kg, iv by LC-MS analysis; type: ADME, organism-based; conditions: in vivo
HT-29 [9] = experiment: Induction of apoptosis in human HT-29 cells assessed as viable cells at 10 uM incubated for 24 hrs by Annexin V FITC/PI staining based flow cytometry analysis ( Rvb = 99 +/- 0.1%); type: functional; conditions: read-out: Activity
[10] = Acute toxicity in ICR mouse assessed as weight loss at 30 to 300 mg/kg, po measured every other day for 14 days; type: organism-based; conditions: in vivo, 336 h, dose 30-300 mg/kg, time 14 day
[11] = Acute toxicity in ICR mouse assessed as change in water intake at 30 to 300 mg/kg, po measured every other day for 14 days; type: organism-based; conditions: in vivo, 336 h, dose 30-300 mg/kg, time 14 day
[12] = AUC(0 to t) in Sprague-Dawley rat at 1 mg/kg, po by LC-MS analysis; type: ADME, organism-based; conditions: in vivo

## Cc1nc(NC(=O)c2sc3cc(F)ccc3c2Cl)c(C)c(C)c1O
U-937 [1]
  viability at 5 µM: 95.2%
[2]
  EC50: 480 nM
HT-29 [3]
  viability at 5 µM: 98.7%
CYP2C19
  activity at 0.25 h, 10 µM: 98.3%
[4]
  F: 24.5%
[5]
  AUCt: 1849.2 ng·h/mL
CYP2D6
  activity at 0.25 h, 10 µM: 86%
U-937 [6]
  viability at 10 µM: 95.2%
[7]
  half-life: 2 h
[8]
  MRT: 1.2 h
HT-29 [9]
  viability at 10 µM: 98.6%
[10]
  Activity: Non-Toxic
[11]
  Activity: Non-Toxic
[12]
  AUCt: 246.3 ng·h/mL
